# Measurements taken from patent US20020061346A1, “FOOD COMPOSITION” (priority 1998, published 2002).
# Assay: Post-prandial study: carotenoid levels in triglyceride-rich blood fractions after a tomato-based meal with plant sterols
# Assay type: in vivo, human
# Conditions: 20 healthy adult volunteers; single meal with 130 g chunky tomato sauce (5.2 mg lycopene, 2.2 mg beta-carotene) and 2.2 g plant sterols; blood samples over 8 hours; pre-meal level taken as zero
# Method: A post-prandial study was undertaken, in which 20 healthy, adult, human volunteers, 10 male, 10 female (age 30-65) were provided with an early-morning tomato-based meal, after which at regular intervals and for a period of 8 hours blood samples were taken. In the triglyceride-rich fractions (mainly consisting of chylomicrons that carry the digested fat and fat-soluble components from the intestine to the liver) of those blood samples the levels of lycopene, beta-carotene and also vitamin A were determined (using straight-phase HPLC analysis using a nucleosil cyanyl-bonded column). The levels of vitamin A (measured as retinyl palmitate) and beta-carotene can be taken together as a measure for beta-carotene uptake, as during absorption (or shortly thereafter) beta-carotene is partly converted into vitamin A. The integrated post-prandial response can then be used to estimate the bioavailability of beta-carotene and lycopene from a meal.
# The meal consisted of 200 g of cooked macaroni, 130 g of chunky tomato sauce (containing more chunks of tomato flesh than most commercial tomato sauces) made of yellow, orange and super red varieties, 80 g of lean cooked ham (gammon), 20 g of white bread, and 11.6 g of sunflower oil (stripped, i.e. low in antoixidants) and 2.2 g of plansterols. […]
smiles,measurement,value
CC1=C(/C=C/C(C)=C/C=C/C(C)=C/C=C/C=C(C)/C=C/C=C(C)/C=C/C2=C(C)CCCC2(C)C)C(C)(C)CCC1 [beta-carotene],"post-prandial response (level in triglyceride-rich blood fractions, FIG. 1)",clear post-prandial response
CC(C)=CCC/C(C)=C/C=C/C(C)=C/C=C/C(C)=C/C=C/C=C(C)/C=C/C=C(C)/C=C/C=C(\C)CCC=C(C)C [lycopene],"post-prandial response (level in triglyceride-rich blood fractions, FIG. 1)",clear post-prandial response
